Reference: PubChem BioAssay AID2060898 (Molecular Pharmacology Branch, DTP, NCI, 2025)
One block for each compound: values may come before it.

System: 616215-338-R-J1-PDC complex spheroid viability
Test: Anticancer human tumor 616215-338-R-J1-PDC patient-derived colon adenocarcinoma cell line growth inhibition [RAS]
Details: for IC50: curve of first compound; for viability, T/C: stronger effect = lower value
Procedure, shortened: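 Agents were tested in combination matrices in half-log decrements from a top concentration at or near clinical Cmax (10 microM if undetermined). Targets were multi-cell spheroids of tumour lines plus HUVEC and MSC stromal cells.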
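Also: spheroids exposed to agents for seven days before viability readout.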
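For viability, T/C in this document: 100% = DMSO vehicle control viability.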

IC50 (second compound 0.000949 µM): > 10000 nM
IC50 (second compound 0.003 µM): > 10000 nM
IC50 (second compound 0.00949 µM): > 10000 nM
IC50 (second compound 0.03 µM): > 10000 nM
IC50 (second compound 0.0949 µM): > 10000 nM
IC50 (second compound 0.3 µM): 6230 nM
SMILES: C[C@@H](NC(=O)c1ncnc(N)c1Cl)c1ncc(C(=O)Nc2cc(C(F)(F)F)c(Cl)cn2)s1 + CCn1c(-c2cccnc2C(C)OC)c2c3cc(ccc31)N1CCOC(CC(NC(=O)C(C(C)C)N(C)C(=O)C3(F)CCN(C(=O)C#CC(C)(C)N(C)C)CC3)C(=O)N3CCCC(N3)C(=O)OCC(C)(C)C2)C1
viability, T/C (second compound 0.000949 µM, first compound 0.0316 µM): 108%
viability, T/C (second compound 0.000949 µM, first compound 0.1 µM): 103%
viability, T/C (second compound 0.000949 µM, first compound 0.316 µM): 100%
viability, T/C (second compound 0.000949 µM, first compound 1 µM): 117%
viability, T/C (second compound 0.000949 µM, first compound 3.16 µM): 113%
viability, T/C (second compound 0.000949 µM, first compound 10 µM): 61.5%
viability, T/C (second compound 0.003 µM, first compound 0.0316 µM): 94.2%
viability, T/C (second compound 0.003 µM, first compound 0.1 µM): 105%
viability, T/C (second compound 0.003 µM, first compound 0.316 µM): 104%
viability, T/C (second compound 0.003 µM, first compound 1 µM): 120%
viability, T/C (second compound 0.003 µM, first compound 3.16 µM): 107%
viability, T/C (second compound 0.003 µM, first compound 10 µM): 68%
viability, T/C (second compound 0.00949 µM, first compound 0.0316 µM): 103%
viability, T/C (second compound 0.00949 µM, first compound 0.1 µM): 100%
viability, T/C (second compound 0.00949 µM, first compound 0.316 µM): 101%
viability, T/C (second compound 0.00949 µM, first compound 1 µM): 112%
viability, T/C (second compound 0.00949 µM, first compound 3.16 µM): 121%
viability, T/C (second compound 0.00949 µM, first compound 10 µM): 72.7%
viability, T/C (second compound 0.03 µM, first compound 0.0316 µM): 101%
viability, T/C (second compound 0.03 µM, first compound 0.1 µM): 98.6%
viability, T/C (second compound 0.03 µM, first compound 0.316 µM): 116%
viability, T/C (second compound 0.03 µM, first compound 1 µM): 111%
viability, T/C (second compound 0.03 µM, first compound 3.16 µM): 112%
viability, T/C (second compound 0.03 µM, first compound 10 µM): 68.6%
viability, T/C (second compound 0.0949 µM, first compound 0.0316 µM): 109%
viability, T/C (second compound 0.0949 µM, first compound 0.1 µM): 115%
viability, T/C (second compound 0.0949 µM, first compound 0.316 µM): 116%
viability, T/C (second compound 0.0949 µM, first compound 1 µM): 86.1%
viability, T/C (second compound 0.0949 µM, first compound 3.16 µM): 90%
viability, T/C (second compound 0.0949 µM, first compound 10 µM): 54.6%
viability, T/C (second compound 0.3 µM, first compound 0.0316 µM): 113%
viability, T/C (second compound 0.3 µM, first compound 0.1 µM): 111%
viability, T/C (second compound 0.3 µM, first compound 0.316 µM): 100%
viability, T/C (second compound 0.3 µM, first compound 1 µM): 79.8%
viability, T/C (second compound 0.3 µM, first compound 3.16 µM): 66.5%
viability, T/C (second compound 0.3 µM, first compound 10 µM): 39.7%

IC50 (second compound 0.0316 µM): 9.25 nM
IC50 (second compound 0.1 µM): 9.98 nM
IC50 (second compound 0.316 µM): 9.74 nM
IC50 (second compound 1 µM): 5.94 nM
IC50 (second compound 3.16 µM): 3.91 nM
IC50 (second compound 10 µM): 3.26 nM
SMILES: Nc1ccn(C2OC(CO)C(O)C2(F)F)c(=O)n1 (centres undefined) + C#Cc1c(F)ccc2cc(O)cc(-c3ncc4c(N5CC6CCC(C5)N6)nc(OCC56CCCN5CC(F)C6)nc4c3F)c12
viability, T/C (second compound 0.0316 µM, first compound 0.00316 µM): 113%
viability, T/C (second compound 0.0316 µM, first compound 0.01 µM): 44.9%
viability, T/C (second compound 0.0316 µM, first compound 0.0316 µM): 24.6%
viability, T/C (second compound 0.0316 µM, first compound 0.1 µM): 13%
viability, T/C (second compound 0.0316 µM, first compound 0.316 µM): 13.2%
viability, T/C (second compound 0.0316 µM, first compound 1 µM): 16.3%
viability, T/C (second compound 0.1 µM, first compound 0.00316 µM): 117%
viability, T/C (second compound 0.1 µM, first compound 0.01 µM): 48.8%
viability, T/C (second compound 0.1 µM, first compound 0.0316 µM): 28.1%
viability, T/C (second compound 0.1 µM, first compound 0.1 µM): 14.9%
viability, T/C (second compound 0.1 µM, first compound 0.316 µM): 14.4%
viability, T/C (second compound 0.1 µM, first compound 1 µM): 14.6%
viability, T/C (second compound 0.316 µM, first compound 0.00316 µM): 90%
viability, T/C (second compound 0.316 µM, first compound 0.01 µM): 48.5%
viability, T/C (second compound 0.316 µM, first compound 0.0316 µM): 28.4%
viability, T/C (second compound 0.316 µM, first compound 0.1 µM): 15.6%
viability, T/C (second compound 0.316 µM, first compound 0.316 µM): 13.9%
viability, T/C (second compound 0.316 µM, first compound 1 µM): 14.8%
viability, T/C (second compound 1 µM, first compound 0.00316 µM): 77%
viability, T/C (second compound 1 µM, first compound 0.01 µM): 24.4%
viability, T/C (second compound 1 µM, first compound 0.0316 µM): 26.7%
viability, T/C (second compound 1 µM, first compound 0.1 µM): 12.7%
viability, T/C (second compound 1 µM, first compound 0.316 µM): 10.8%
viability, T/C (second compound 1 µM, first compound 1 µM): 12.1%
viability, T/C (second compound 3.16 µM, first compound 0.00316 µM): 55.9%
viability, T/C (second compound 3.16 µM, first compound 0.01 µM): 24.1%
viability, T/C (second compound 3.16 µM, first compound 0.0316 µM): 19%
viability, T/C (second compound 3.16 µM, first compound 0.1 µM): 10.6%
viability, T/C (second compound 3.16 µM, first compound 0.316 µM): 11.6%
viability, T/C (second compound 3.16 µM, first compound 1 µM): 12.1%
viability, T/C (second compound 10 µM, first compound 0.00316 µM): 50.9%
viability, T/C (second compound 10 µM, first compound 0.01 µM): 21.4%
viability, T/C (second compound 10 µM, first compound 0.0316 µM): 16.3%
viability, T/C (second compound 10 µM, first compound 0.1 µM): 12.4%
viability, T/C (second compound 10 µM, first compound 0.316 µM): 10%
viability, T/C (second compound 10 µM, first compound 1 µM): 10.9%
